Laboratory results: patent publication US20250340590A1, “PEPTIDE HAVING ANTI-INFLAMMATORY ACTIVITY AND USE THEREOF” (CAREGEN CO., LTD., priority 2021, published 2025)

Experiments:
Cox2 [1] = assay: Cox2 protein level by Western blot in TNFα-induced HaCaT cells; assay type: cell-based, human; settings: TNFα 20 nM, peptide at 5 μM and 50 μM, 24 hours, compared to group not treated with TNFα
Procedure: In order to confirm the anti-inflammatory effect of treatment with the peptides of the present invention having the amino acid sequence of SEQ ID NO: 1, inflammation was induced in HaCaT cells, which are human keratinocytes, and the expression level of Cox2 protein was confirmed. In order to induce inflammation, the cells were treated with TNFα, which is an inflammation-inducing cytokine, and since Cox2 is an enzyme involved in the synthesis of prostaglandins corresponding to an inflammation-related protein, it is possible to confirm whether inflammation is inhibited by measuring the expression level of Cox2.
HaCaT cells were dispensed into a 24-well plate at a concentration of 3× 10^5 cells/well and cultured until the next day. The medium was replaced with serum-free medium, and after 4 hours, the cells were treated with TNFα and the peptide of the present invention and cultured again for another 24 hours. In order to induce inflammation, the cells were treated with TNFα at 20 nM, and treated with the peptide at 5 μM and 50 μM, respectively. […] In order to perform Western blotting, the amount of Cox2 protein was measured using an anti-Cox2 antibody (Cell Signaling Technology, USA). […]

TNFα [2] = assay: TNFα secretion by ELISA in LPS-induced mouse splenocytes; assay type: cell-based; settings: LPS 2 μg/mL, peptide at 5 μM and 50 μM, 24 hours
Procedure: (§1) Inflammation was induced in mouse splenocytes, and the secretion amounts of inflammatory cytokines TNFα, IL-1β, and IFNγ were confirmed. In order to induce inflammation, the cells were treated with an inflammation-inducing antigen, LPS, and since TNFα corresponds to a signaling protein associated with inflammation, IL-1β corresponds to a cytokine that promotes inflammation, and IFNγ also corresponds to a cytokine that promotes inflammation, the degree of inflammation can be confirmed by measuring the secretion amounts of TNFα, IL-1B, and IFNγ.
(§2) Mouse splenocytes were dispensed into a 24-well plate at a concentration of 1×10^7 cells/well and cultured until the next day. The medium was replaced with serum-free medium, and after 4 hours, the cells were treated with LPS and the peptide of the present invention and then cultured again for another 24 hours. In order to induce inflammation, the cells were treated with LPS at 2 μg/mL, and the peptide at 5 μM and 50 μM, respectively. […]

Cox2 [3] = assay: Cox2 mRNA level by RT-PCR in TNFα-induced mouse splenocytes; assay type: cell-based; settings: TNFα 20 nM, peptide at 5 μM and 50 μM, 3 hours, compared to group not treated with the peptide
Procedure: (§3) In order to further confirm the anti-inflammatory effect of the peptide treatment of the present invention in addition to the results of Experimental Example <3-1>, inflammation was induced by treating mouse splenocytes with TNFα, and the expression levels of inflammatory cytokines TNFα and IL-1β, and Cox2, which is an inflammation-inducing marker, genes were confirmed. In order to induce inflammation, the cells were treated with cytokine TNFα, and since TNFα corresponds to a signaling protein associated with inflammation, IL-1β corresponds to a cytokine that promotes inflammation, and Cox2 is a protein associated with inflammation, the degree of inflammation can be confirmed by measuring the expression levels of TNFα, Cox2, and IL-1β genes.
(§4) Mouse splenocytes were dispensed into a 24-well plate at a concentration of 1× 10^7 cells/well and cultured until the next day. The medium was replaced with serum-free medium, and after 3 hours, the cells were treated with TNFα and the peptide of the present invention and then cultured for another 3 hours. In order to induce inflammation, the cells were treated with TNFα at 20 nM, and the peptide at 5 μM and 50 μM, respectively. […] After quantifying the amount of isolated RNA, cDNA was synthesized using a cDNA synthesis kit (Intron, Korea), PCR was performed using a PCR premix (Intron, Korea) and primers for TNFα, Cox2, and IL-1B. […]

IL-1β = IL-1β secretion by ELISA in LPS-induced mouse splenocytes; assay type: cell-based; settings: LPS 2 μg/mL, peptide at 5 μM and 50 μM, 24 hours
Procedure: as §1, §2

TNFα [4] = assay: TNFα mRNA level by RT-PCR in TNFα-induced mouse splenocytes; assay type: cell-based; settings: TNFα 20 nM, peptide at 5 μM and 50 μM, 3 hours, compared to group not treated with the peptide
Procedure: as §3, §4

TWNS [peptide of the present invention]
decreased: expression level of Cox2 protein (Cox2 [1]) | secretion amount of TNFα (TNFα [2]) | mRNA expression level of Cox2 (Cox2 [3]) | secretion amount of IL-1β (IL-1β) | mRNA expression level of TNFα (TNFα [4])
